# Results reported in patent publication US12151999B2, “Small molecule compounds having naphthylamine structure and application thereof” (Hangzhou PhecdaMed Co., Ltd., priority 2021, dated 2024).
# Test system: HEK293Tmtkeima cells
# Experiment: Functional test of mitophagy inducer (mtKeima imaging, with or without CCCP-induced mitochondrial damage)
# Format: cell-based, Human
# Details: HEK293Tmtkeima cells, 5 uM or 10 uM CCCP to induce mitochondrial damage; number of cells in which damaged mitophagy occurs/number of all cells
# Experimental: Group 1: Human embryonic kidney transformed cells HEK293Tmtkeima cells were treated with 0 μM, 1.25 μM, 2.5 μM, 5 μM and 10 μM CCCP respectively, and seeded in a 96-well black ELISA PLATE at 1.5*10^5 cells/ml, 100 μL per well. Compound I-2 was added after 25 hours, and 3 replicates were set. At 37° C., under 5% CO2 incubation conditions, photographs were taken every few hours with biotek cytation 5 for a total of 20 hours, with the bright field as the focusing channel, and 9 images were taken per hole, and the images were processed using the instrument software.
# Group 2: Human embryonic kidney transformed cells HEK293Tmtkeima cells were seeded in a 96-well black ELISA PLATE at […], 100 μL per well; compounds I-1˜I-44 and UMI-77 were added after 25 hours, set up 3 replicates; under 37° C., 5% CO2 culture conditions, use biotek every few hours Cytation 5 was used to take photos, a total of 20 hours of shooting. In another group of cells under the same conditions, human embryonic kidney-transformed cells HEK293Tmtkeima cells were seeded in a 96-well black enzyme plate at 1.5*10^5 cells/ml, 100 μl per well; after 24 hours, 5 uM or 10 uM CCCP (Carbonyl cyanide) was first added 3-chlorophenylhydrazone) to induce mitochondrial damage, then add I-1˜I-44, UMI-77 1 hour later, set up 3 repetitions; under 37° C., 5% CO2 culture conditions, pictures were taken every few hours with biotek cytation 5, photographs were taken for 20 hours. Another group of human embryonic kidney transformed cells HEK293Tmtkeima cells was seeded at 1.5*10^5 cells/ml in 96-well black ELISA PLATE at 100 μl per well under the same conditions, 24 hours later 5 uM or 10 uM CCCP (Carbonyl cyanide 3-chlorophenylhydrazone) was first added to induce mitochondrial damage, after 1 hour then add I-1 to I-44, UMI-77 and set up 3 replicates. At 37° C., under 5% CO2 incubation conditions, pictures were taken every few hours with biotek cytation 5, photographs were taken for 20 hours, with the bright field as the focusing channel for both groups, and 9 images were taken per hole, and the images were processed using the instrument software.
row,SMILES,The ability of selection to induce autophagy in damaged mitochondria
1,O=S(=O)(Cc1nn[nH]n1)c1cc(NS(=O)(=O)c2ccc(Br)cc2)c2ccccc2c1O [Compound I-7-2],+ (weak ability to selectively induce autophagy in damaged mitochondria (number of cells in which damaged mitophagy occurs/number of all cells in the range of 0.1 to 0.2))
2,O=C(O)CS(=O)(=O)c1cc(NS(=O)(=O)c2ccc(Br)cc2)c2ccccc2c1O [Compound I-42],+ (weak ability to selectively induce autophagy in damaged mitochondria (number of cells in which damaged mitophagy occurs/number of all cells in the range of 0.1 to 0.2))
3,O=C(O)CS(=O)(=O)c1cc(NS(=O)(=O)c2cccs2)c2ccccc2c1O [Compound I-13-2],++ (moderate ability to selectively induce autophagy in damaged mitochondria (number of cells in which damaged mitophagy occurs/number of all cells in the range of 0.2 to 0.3))
4,NC(=S)C[S+]([O-])c1cc(NS(=O)(=O)c2ccc(Br)cc2)c2ccccc2c1O (stereo not shown) [Compound I-6],+ (weak ability to selectively induce autophagy in damaged mitochondria (number of cells in which damaged mitophagy occurs/number of all cells in the range of 0.1 to 0.2))
5,COP(=O)(Nc1cc([S+]([O-])CC(=O)O)c(O)c2ccccc12)c1ccc(Br)cc1 (stereo not shown) [Compound I-33],++ (moderate ability to selectively induce autophagy in damaged mitochondria (number of cells in which damaged mitophagy occurs/number of all cells in the range of 0.2 to 0.3))
6,CN=S(=O)(Nc1cc([S+]([O-])CC(=O)O)c(O)c2ccccc12)c1ccc(Br)cc1 (stereo not shown) [Compound I-25-1],+++ (strong ability to selectively induce autophagy in damaged mitochondria (number of cells in which damaged mitophagy occurs/number of all cells >0.30))
7,O=C(O)C[S+]([O-])c1cc(NS(=O)(=O)c2cccc(F)c2)c2ccccc2c1O (stereo not shown) [Compound I-24-1],+ (weak ability to selectively induce autophagy in damaged mitochondria (number of cells in which damaged mitophagy occurs/number of all cells in the range of 0.1 to 0.2))
